{"source": "ChEMBL document CHEMBL5543137", "about": "“Design and Synthesis of Novel Ultralong-Acting Peptides as EDP-EBP Interaction Inhibitors for Pulmonary Fibrosis Treatment” (J Med Chem, 2024)", "key": {"Mus musculus [1]": {"test_system": "Mus musculus", "test": "Antifibrotic activity against BLM-induced C57BL/6 mouse pulmonary fibrosis model assessed as reduction in Thbs gene expression at 240 ug/kg/day, sc administered for 2 weeks starting from 7 days post BLM induction and measured after 21 days post BLM induction by ScRNA-sequencing analysis", "type": "functional, organism-based", "conditions": "dose 240.0 µg/kg/day"}, "[2]": {"test": "Binding affinity to EBP (unknown origin) by ITC method", "set-up": "species or system Homo sapiens"}, "Mus musculus [3]": {"test_system": "Mus musculus", "test": "Antifibrotic activity against BLM-induced C57BL/6 mouse pulmonary fibrosis model assessed as reduction in Col1a2 gene expression at 240 ug/kg/day, sc administered for 2 weeks starting from 7 days post BLM induction and measured after 21 days post BLM induction by ScRNA-sequencing analysis", "type": "functional, organism-based", "conditions": "dose 240.0 µg/kg/day"}, "A549 [4]": {"test_system": "A549", "test": "Inhibition of EBP signaling pathway in TGFalpha induced human A549 cells assessed as reduction in ERK phosphorylation at 10 uM incubated for 24 hrs by Western blotting analysis", "type": "cell-based"}, "[5]": {"test": "Stability in rat serum measured upto 48 hrs by LC-MS/MS method", "type": "ADME, cell-free"}, "Mus musculus [6]": {"test_system": "Mus musculus", "test": "Antifibrotic activity against BLM-induced C57BL/6 mouse pulmonary fibrosis model assessed as downregulation of TNFalpha gene expression in lung tissue at 150 ug/kg, sc administered for 2 weeks starting from 7 days post BLM induction and measured after 21 days post BLM induction by RT-qPCR assay", "type": "functional, organism-based", "conditions": "dose 150.0 µg/kg"}, "RAW264.7 [7]": {"test_system": "RAW264.7", "test": "Upregulation of MMP-12 expression in mouse RAW264.7 cells at 10 uM incubated for 6 to 24 hrs", "type": "functional, cell-based", "conditions": "time 6-24 hrs"}, "[8]": {"test": "Half-life in Sprague-Dawley rat serum at 0.04 mg/kg, sc administered as single dose measured upto 10 days by LC-MS/MS method", "type": "ADME, organism-based", "conditions": "time < 10 day"}, "Mus musculus [9]": {"test_system": "Mus musculus", "test": "Antifibrotic activity against BLM-induced C57BL/6 mouse pulmonary fibrosis model assessed as reduction in Col1a1 gene expression at 240 ug/kg/day, sc administered for 2 weeks starting from 7 days post BLM induction and measured after 21 days post BLM induction by ScRNA-sequencing analysis", "type": "functional, organism-based", "conditions": "dose 240.0 µg/kg/day"}, "Mus musculus [10]": {"test_system": "Mus musculus", "test": "Antifibrotic activity against BLM-induced C57BL/6 mouse pulmonary fibrosis model assessed as reduction in Fn gene expression at 240 ug/kg/day, sc administered for 2 weeks starting from 7 days post BLM induction and measured after 21 days post BLM induction by ScRNA-sequencing analysis", "type": "functional, organism-based", "conditions": "dose 240.0 µg/kg/day"}, "Mus musculus [11]": {"test_system": "Mus musculus", "test": "Antifibrotic activity against BLM-induced C57BL/6 mouse pulmonary fibrosis model assessed as reduction in ECM1 gene expression at 240 ug/kg/day, sc administered for 2 weeks starting from 7 days post BLM induction and measured after 21 days post BLM induction by ScRNA-sequencing analysis", "type": "functional, organism-based", "conditions": "dose 240.0 µg/kg/day"}, "Mus musculus [12]": {"test_system": "Mus musculus", "test": "Antifibrotic activity against BLM-induced sc dosed C57BL/6 mouse pulmonary fibrosis model assessed as reversal of lung indices administered for 2 weeks starting from 7 days post BLM induction and measured after 21 days post BLM induction", "type": "functional, organism-based", "conditions": "dose 30-240 µg/kg"}, "A549 [13]": {"test_system": "A549", "test": "Antifibrotic activity against TNFalpha-induced human A549 cells assessed as downregulation of Tgfb1 gene expression level at 10 uM incubated for 24 hrs by RT-qPCR analysis", "type": "functional, cell-based"}, "A549 [14]": {"test_system": "A549", "test": "Downregulation of EDP level in TNFalpha induced human A549 cells at 1 to 10 uM", "type": "functional, cell-based", "conditions": "dose 1-10 µM"}, "TC-1 [15]": {"test_system": "TC-1", "test": "Antifibrotic activity against BLM-induced mouse TC-1 cells assessed as reduction in FN expression at 10 uM after 24 hrs by Western blotting analysis", "type": "functional, cell-based"}, "Mus musculus [16]": {"test_system": "Mus musculus", "test": "Antifibrotic activity against BLM-induced C57BL/6 mouse pulmonary fibrosis model assessed as downregulation of Fn gene expression in lung tissue at 150 ug/kg, sc administered for 2 weeks starting from 7 days post BLM induction and measured after 21 days post BLM induction by RT-qPCR assay", "type": "functional, organism-based", "conditions": "dose 150.0 µg/kg"}, "Mus musculus [17]": {"test_system": "Mus musculus", "test": "Antifibrotic activity against BLM-induced C57BL/6 mouse pulmonary fibrosis model assessed as reduction in Fstl1 gene expression at 240 ug/kg/day, sc administered for 2 weeks starting from 7 days post BLM induction and measured after 21 days post BLM induction by ScRNA-sequencing analysis", "type": "functional, organism-based", "conditions": "dose 240.0 µg/kg/day"}, "Mus musculus [18]": {"test_system": "Mus musculus", "test": "Antifibrotic activity against BLM-induced C57BL/6 mouse pulmonary fibrosis model assessed as increase in monocytes in BALF at 30 to 240 ug/kg/day, sc administered for 2 weeks starting from 7 days post BLM induction and measured after 21 days post BLM induction", "type": "functional, organism-based", "conditions": "dose 30-240 µg/kg/day"}, "Mus musculus [19]": {"test_system": "Mus musculus", "test": "Antifibrotic activity against BLM-induced C57BL/6 mouse pulmonary fibrosis model assessed as increase in ECM degradation at 240 ug/kg/day, sc administered for 2 weeks starting from 7 days post BLM induction and measured after 21 days post BLM induction by gene enrichment analysis", "type": "functional, organism-based", "conditions": "dose 240.0 µg/kg/day"}, "A549 [20]": {"test_system": "A549", "test": "Antifibrotic activity against BLM-induced human A549 cells assessed as reduction in FN expression at 10 uM after 24 hrs by Western blotting analysis", "type": "functional, cell-based"}, "TC-1 [21]": {"test_system": "TC-1", "test": "Inhibition of EBP signaling pathway in TGFalpha induced mouse TC-1 cells assessed as reduction in ERK phosphorylation at 10 uM incubated for 24 hrs by Western blotting analysis", "type": "cell-based"}, "Mus musculus [22]": {"test_system": "Mus musculus", "test": "Antifibrotic activity against BLM-induced C57BL/6 mouse pulmonary fibrosis model assessed as reversal of body weight loss at 150 ug/kg, sc administered for 2 weeks starting from 7 days post BLM induction and measured after 21 days post BLM induction", "type": "functional, organism-based", "conditions": "dose 150.0 µg/kg"}, "RAW264.7 [23]": {"test_system": "RAW264.7", "test": "Antifibrotic activity against BLM-induced mouse RAW264.7 cells assessed as upregulation of MMP-12 expression at 10 uM incubated for 6 to 24 hrs by ELISA", "type": "functional, cell-based", "conditions": "time 6-24 hrs"}, "[24]": {"test": "Half life in cynomolgus monkey at 0.06 mg/kg, sc administered as single dose measured upto 30 days by LC-MS/MS method", "type": "ADME, organism-based, Macaca fascicularis", "conditions": "in vivo, time < 30 day"}, "TC-1 [25]": {"test_system": "TC-1", "test": "Antifibrotic activity against BLM-induced mouse TC-1 cells assessed as reduction in MMP-12 expression at 10 uM after 24 hrs by Western blotting analysis", "type": "functional, cell-based"}, "Mus musculus [26]": {"test_system": "Mus musculus", "test": "Antifibrotic activity against BLM-induced C57BL/6 mouse pulmonary fibrosis model assessed as reduction in Dcn gene expression at 240 ug/kg/day, sc administered for 2 weeks starting from 7 days post BLM induction and measured after 21 days post BLM induction by ScRNA-sequencing analysis", "type": "functional, organism-based", "conditions": "dose 240.0 µg/kg/day"}, "A549 [27]": {"test_system": "A549", "test": "Antifibrotic activity against BLM-induced human A549 cells cocultured with RAW264.7 cells assessed as reduction in Vimentin expression at 10 uM after 24 hrs by Western blotting analysis", "type": "functional, cell-based"}, "Mus musculus [28]": {"test_system": "Mus musculus", "test": "Antifibrotic activity against BLM-induced C57BL/6 mouse pulmonary fibrosis model assessed as increase in serum MMP-12 level at 30 to 240 ug/kg/day, sc administered for 2 weeks starting from 7 days post BLM induction and measured after 21 days post BLM induction", "type": "functional, organism-based", "conditions": "dose 30-240 µg/kg/day"}, "Mus musculus [29]": {"test_system": "Mus musculus", "test": "Antifibrotic activity against BLM-induced C57BL/6 mouse pulmonary fibrosis model assessed as reduction in FN expression at 240 ug/kg/day, sc administered for 2 weeks starting from 7 days post BLM induction and measured after 21 days post BLM induction in presence of GM6001", "type": "functional, organism-based", "conditions": "dose 240.0 µg/kg/day"}, "Mus musculus [30]": {"test_system": "Mus musculus", "test": "Antifibrotic activity against BLM-induced C57BL/6 mouse pulmonary fibrosis model assessed as reduction in ECM deposition in lungs at 30 to 240 ug/kg, sc administered for 2 weeks starting from 7 days post BLM induction and measured after 21 days post BLM induction", "type": "functional, organism-based", "conditions": "dose 30-240 µg/kg"}}, "note": "Active and inactive are the calls of the source. No cut-off for these calls is given here. Starred links: 1 amine or outer side, 2 acyl side, 3 side chain; linkers in the order of their positions; H or OH if unused. Non-standard residues stand in square brackets, D forms with d. Residues, ends and D or L forms follow the SMILES beside them. *: point of attachment. C20 diacid = O=C(O)CCCCCCCCCCCCCCCCCCC(=O)*; γGlu = O=C(O)[C@H](CCC(=O)[*:2])N[*:1]; Iva = CC[C@](C)(N)C(=O)O; PEG2 = NCCOCCOCCC(=O)O", "data": [{"compound": "CC[C@](C)(NC(=O)[C@@H](NC(=O)CCOCCOCCNC(=O)CCOCCOCCNC(=O)CC[C@H](NC(=O)CCCCCCCCCCCCCCCCCCC(=O)O)C(=O)O)C(C)C)C(=O)NCC(=O)N[C@@H](CO)C(=O)N1CCC[C@H]1C(=O)N[C@@H](CO)C(=O)N[C@@H](C)C(=O)N[C@@H](CCC(N)=O)C(=O)N[C@@H](CCC(=O)O)C(=O)N[C@@H](CCC(=O)O)C(=O)N[C@@H](C)C(=O)N[C@@H](CO)C(=O)N1CCC[C@H]1C(=O)N[C@@H](C)C(N)=O", "note": "({C20 diacid-γGlu-PEG2-PEG2}-V[Iva]GSPSAQEEASPA-NH2)", "values": [{"measurement": "Activity", "setting": "Mus musculus [1]", "value": "Active"}, {"measurement": "Kd", "setting": "[2]", "value": 117, "unit": "µM"}, {"measurement": "Activity", "setting": "Mus musculus [3]", "value": "Active"}, {"measurement": "inhibition", "setting": "A549 [4]", "value": "Active"}, {"measurement": "Stability", "setting": "[5]", "value": "Stable"}, {"measurement": "Activity", "setting": "Mus musculus [6]", "value": "Active"}, {"measurement": "Activity", "setting": "RAW264.7 [7]", "value": "inactive"}, {"measurement": "half-life", "setting": "[8]", "value": 33.4, "unit": "h"}, {"measurement": "Activity", "setting": "Mus musculus [9]", "value": "Active"}, {"measurement": "Activity", "setting": "Mus musculus [10]", "value": "Active"}, {"measurement": "Activity", "setting": "Mus musculus [11]", "value": "Active"}, {"measurement": "Activity", "setting": "Mus musculus [12]", "value": "Dose-Dependent Effect"}, {"measurement": "Activity", "setting": "A549 [13]", "value": "Active"}, {"measurement": "Activity", "setting": "A549 [14]", "value": "Dose-Dependent Effect"}, {"measurement": "Activity", "setting": "TC-1 [15]", "value": "Active"}, {"measurement": "Activity", "setting": "Mus musculus [16]", "value": "Active"}, {"measurement": "Activity", "setting": "Mus musculus [17]", "value": "Active"}, {"measurement": "Activity", "setting": "Mus musculus [18]", "value": "Active"}, {"measurement": "Activity", "setting": "Mus musculus [19]", "value": "Active"}, {"measurement": "Activity", "setting": "A549 [20]", "value": "Active"}, {"measurement": "inhibition", "setting": "TC-1 [21]", "value": "Active"}, {"measurement": "Activity", "setting": "Mus musculus [22]", "value": "Active"}, {"measurement": "Activity", "setting": "RAW264.7 [23]", "value": "Active"}, {"measurement": "half-life", "setting": "[24]", "value": 257, "unit": "h"}, {"measurement": "Activity", "setting": "TC-1 [25]", "value": "inactive"}, {"measurement": "Activity", "setting": "Mus musculus [26]", "value": "Active"}, {"measurement": "Activity", "setting": "A549 [27]", "value": "Active"}, {"measurement": "Activity", "setting": "Mus musculus [28]", "value": "Active"}, {"measurement": "Activity", "setting": "Mus musculus [29]", "value": "inactive"}, {"measurement": "Activity", "setting": "Mus musculus [30]", "value": "Active"}]}]}
